The values below come from BindingDB's records for doi:10.1038/nchembio.2209 (Dana-Farber Cancer Institute, 2016).

Experiment [1] has as its target T1, Bromodomain testis-specific protein [21-137] (Homo sapiens, UniProt Q58F21).
T1 construct: 21-137
Put plainly: AlphaScreen BRD Binding Assay. As to conditions: pH 7.5; 25 °C. For orientation: In Alpha technology, singlet oxygen from a donor bead excites a nearby acceptor bead.

For experiment [2], the target named is T2, Bromodomain-containing protein 4 [44-168] (Human, UniProt O60885).
T2 construct: 44-168
Put plainly: AlphaScreen BRD Binding Assay. Particulars: pH 7.5; 25 °C.

Experiment [3] has as its target T2, Bromodomain-containing protein 4 [44-168]. Put plainly: BROMOscan Assay.
The target in experiment [4] is T3, Bromodomain-containing protein 4 [44-168,333-460] (Homo sapiens, UniProt O60885).
T3 construct: 44-168,333-460
Put plainly: BROMOscan Assay.

Experiment [5] addresses T4, Bromodomain testis-specific protein [21-137,251-382] (Homo sapiens, UniProt Q58F21).
T4 construct: 21-137,251-382
In words: BROMOscan Assay.

Experiment [6] addresses T4, Bromodomain testis-specific protein [21-137,251-382]. In words: Bromodomains Assay for DiscoveRx Gene Symbol.
Experiment [7] has as its target T1, Bromodomain testis-specific protein [21-137]. In words: Bromodomains Assay for DiscoveRx Gene Symbol.
Experiment [8] addresses T5, Bromodomain testis-specific protein [251-382] (Homo sapiens, UniProt Q58F21).
T5 construct: 251-382
Put plainly: Bromodomains Assay for DiscoveRx Gene Symbol.

Experiment [9] deals with T6, Bromodomain-containing protein 3 [24-144,306-416] (Homo sapiens, UniProt Q15059).
T6 construct: 24-144,306-416
T6 sequence (Q15059 as listed by the source): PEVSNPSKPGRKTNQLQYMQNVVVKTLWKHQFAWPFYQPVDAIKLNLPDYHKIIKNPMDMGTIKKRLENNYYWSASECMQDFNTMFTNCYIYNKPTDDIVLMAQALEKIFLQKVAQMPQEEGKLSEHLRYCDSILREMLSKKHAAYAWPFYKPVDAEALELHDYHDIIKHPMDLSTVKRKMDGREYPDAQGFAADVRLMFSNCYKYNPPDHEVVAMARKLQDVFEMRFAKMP
Put plainly: Bromodomains Assay for DiscoveRx Gene Symbol.

The target of experiment [10] is T7, Bromodomain-containing protein 3 [24-144] (Homo sapiens, UniProt Q15059).
T7 construct: 24-144
T7 sequence (Q15059 24-144): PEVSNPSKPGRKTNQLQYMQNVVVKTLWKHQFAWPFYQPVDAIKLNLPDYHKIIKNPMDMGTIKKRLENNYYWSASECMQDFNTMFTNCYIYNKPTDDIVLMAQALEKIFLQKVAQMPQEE
Put plainly: Bromodomains Assay for DiscoveRx Gene Symbol.

The target of experiment [11] is T8, Bromodomain-containing protein 3 [306-416] (Homo sapiens, UniProt Q15059).
T8 construct: 306-416
T8 sequence (Q15059 306-416): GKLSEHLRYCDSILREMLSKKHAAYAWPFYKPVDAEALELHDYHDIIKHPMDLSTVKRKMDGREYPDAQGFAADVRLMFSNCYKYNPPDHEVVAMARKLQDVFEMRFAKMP
In words: Bromodomains Assay for DiscoveRx Gene Symbol.

The target of experiment [12] is T9, Bromodomain-containing protein 2 [71-194,348-455] (Homo sapiens, UniProt P25440).
T9 construct: 71-194,348-455
T9 sequence (P25440 as listed by the source): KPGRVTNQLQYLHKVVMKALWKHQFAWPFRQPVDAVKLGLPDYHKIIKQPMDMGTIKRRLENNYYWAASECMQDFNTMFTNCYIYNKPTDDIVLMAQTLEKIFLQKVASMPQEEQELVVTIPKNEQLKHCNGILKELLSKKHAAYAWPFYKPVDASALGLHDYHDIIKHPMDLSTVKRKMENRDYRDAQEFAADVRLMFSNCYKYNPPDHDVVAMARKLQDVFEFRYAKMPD
Put plainly: Bromodomains Assay for DiscoveRx Gene Symbol.

Turning to `COC(=O)CC1N=C(c2ccc(Cl)cc2)c2c(sc(C(=O)NCCNC(=O)Cn3c(=O)n([C@H](C)c4ccccn4)c4c5cc(OC)c(-c6c(C)noc6C)cc5ncc43)c2C)-n2c(C)nnc21` (stereo partly drawn) [2S+IBET-PEG0 (23)], the IC50 in [1] is 596 nM; in experiment [2], 439 nM.
The matching figures for `COC(=O)CC1N=C(c2ccc(Cl)cc2)c2c(sc(C(=O)NCCOCCNC(=O)Cn3c(=O)n([C@H](C)c4ccccn4)c4c5cc(OC)c(-c6c(C)noc6C)cc5ncc43)c2C)-n2c(C)nnc21` (stereo partly drawn) [2S+IBET-PEG1 (24)]: 40.3 nM and 18.1 nM.
In the case of `COC(=O)CC1N=C(c2ccc(Cl)cc2)c2c(sc(C(=O)NCCOCCOCCNC(=O)Cn3c(=O)n([C@H](C)c4ccccn4)c4c5cc(OC)c(-c6c(C)noc6C)cc5ncc43)c2C)-n2c(C)nnc21` (stereo partly drawn) [2S+IBET-PEG2 (25)], the IC50 stood at 23.2 nM in experiment [1] and 5.8 nM in experiment [2].
On the same counts, the results for `COC(=O)CC1N=C(c2ccc(Cl)cc2)c2c(sc(C(=O)NCCOCCOCCOCCNC(=O)Cn3c(=O)n([C@H](C)c4ccccn4)c4c5cc(OC)c(-c6c(C)noc6C)cc5ncc43)c2C)-n2c(C)nnc21` (stereo partly drawn) [2S+IBET-PEG3 (26)] are 31.7 nM and 11.3 nM.
Regarding `COC(=O)CC1N=C(c2ccc(Cl)cc2)c2c(sc(C(=O)NCCOCCOCCOCCOCCNC(=O)Cn3c(=O)n([C@H](C)c4ccccn4)c4c5cc(OC)c(-c6c(C)noc6C)cc5ncc43)c2C)-n2c(C)nnc21` (stereo partly drawn) [2S+IBET-PEG4 (27)], the half-inhibitory concentration (IC50) came out at 21.7 nM in [1] and 10.3 nM in experiment [2].
As to `COC(=O)CC1N=C(c2ccc(Cl)cc2)c2c(sc(C(=O)NCCOCCOCCOCCOCCOCCOCCOCCNC(=O)Cn3c(=O)n([C@H](C)c4ccccn4)c4c5cc(OC)c(-c6c(C)noc6C)cc5ncc43)c2C)-n2c(C)nnc21` (stereo partly drawn) [2S+IBET-PEG7 (28)], the IC50 came out at 13.2 nM in experiment [1] and 17.4 nM in experiment [2].
For `COc1cc2c(cc1-c1c(C)noc1C)ncc1c2n([C@H](C)c2ccccn2)c(=O)n1CC(=O)NCCNC(=O)C[C@@H]1N=C(c2ccc(Cl)cc2)c2c(sc(C)c2C)-n2c(C)nnc21` [6S+IBET-PEG0 (17)], the IC50 is 148 nM in experiment [1] and 404 nM in experiment [2].
Consider `COc1cc2c(cc1-c1c(C)noc1C)ncc1c2n([C@H](C)c2ccccn2)c(=O)n1CC(=O)NCCOCCNC(=O)C[C@@H]1N=C(c2ccc(Cl)cc2)c2c(sc(C)c2C)-n2c(C)nnc21` [6S+IBET-PEG1 (18)], for which the IC50 was 12.1 nM in experiment [1] and 54 nM in [2].
On to `COc1cc2c(cc1-c1c(C)noc1C)ncc1c2n([C@H](C)c2ccccn2)c(=O)n1CC(=O)NCCOCCOCCNC(=O)C[C@@H]1N=C(c2ccc(Cl)cc2)c2c(sc(C)c2C)-n2c(C)nnc21` [6S+IBET-PEG2 (19)], for which the concentration for half-maximal inhibition (IC50) in [1] is 10 nM; in experiment [2], 58.6 nM. Further, the affinity in experiment [3], expressed as Kd, was 0.062 nM.
For `COc1cc2c(cc1-c1c(C)noc1C)ncc1c2n([C@H](C)c2ccccn2)c(=O)n1CC(=O)NCCOCCOCCOCCNC(=O)C[C@@H]1N=C(c2ccc(Cl)cc2)c2c(sc(C)c2C)-n2c(C)nnc21` [6S+IBET-PEG3 (20)], the IC50 in experiment [1] amounted to 5.78 nM; in experiment [2], 27.4 nM.
`COc1cc2c(cc1-c1c(C)noc1C)ncc1c2n([C@H](C)c2ccccn2)c(=O)n1CC(=O)NCCOCCOCCOCCOCCNC(=O)C[C@@H]1N=C(c2ccc(Cl)cc2)c2c(sc(C)c2C)-n2c(C)nnc21` [6S+IBET-PEG4 (21)]: the IC50 was 6.2 nM in experiment [1] and 29.5 nM in [2].
Turning to `COc1cc2c(cc1-c1c(C)noc1C)ncc1c2n([C@H](C)c2ccccn2)c(=O)n1CC(=O)NCCOCCOCCOCCOCCOCCOCCOCCNC(=O)C[C@@H]1N=C(c2ccc(Cl)cc2)c2c(sc(C)c2C)-n2c(C)nnc21` [6S+IBET-PEG7 (22)], the IC50 in experiment [1] was determined as 6.1 nM; in experiment [2], 11.5 nM.
Molecule `COC(=O)C[C@@H]1N=C(c2ccc(Cl)cc2)c2c(sc(C(=O)NCCOCCNC(=O)c3sc4c(c3C)C(c3ccc(Cl)cc3)=N[C@H](CC(=O)OC)c3nnc(C)n3-4)c2C)-n2c(C)nnc21` [(2S+2S)-PEG1 (5)] had an IC50 in experiment [2] of 1.17 nM.
With `COC(=O)C[C@@H]1N=C(c2ccc(Cl)cc2)c2c(sc(C(=O)NCCNC(=O)C[C@@H]3N=C(c4ccc(Cl)cc4)c4c(sc(C)c4C)-n4c(C)nnc43)c2C)-n2c(C)nnc21` [(6S+2S)-PEG0 (6)], the IC50 in [1] is 2.36 nM; in experiment [2], 3.58 nM. In addition, the values for the dissociation constant Kd in experiment [4] and in experiment [3] were 0.047 nM and 0.034 nM, respectively.
The molecule `COC(=O)C[C@@H]1N=C(c2ccc(Cl)cc2)c2c(sc(C(=O)NCCOCCNC(=O)C[C@@H]3N=C(c4ccc(Cl)cc4)c4c(sc(C)c4C)-n4c(C)nnc43)c2C)-n2c(C)nnc21` [(6S+2S)-PEG1 (7)] registered an IC50 in experiment [1] of 0.574 nM. The dissociation constant (Kd) in experiment [5] was 0.039 nM; in experiment [8], 0.066 nM. In addition, the Ki in experiment [6] is 0.42 nM; in [7] it was 0.29 nM; in [9], 0.11 nM; in experiment [10] it was 0.13 nM; in [11], 0.0027 nM.
For the molecule `COC(=O)C[C@@H]1N=C(c2ccc(Cl)cc2)c2c(sc(C(=O)NCCOCCOCCNC(=O)C[C@@H]3N=C(c4ccc(Cl)cc4)c4c(sc(C)c4C)-n4c(C)nnc43)c2C)-n2c(C)nnc21` [(6S+2S)-PEG2 (8)], the values for the IC50 in experiment [1] and in experiment [2] were 1.84 nM and 1.28 nM, respectively. Besides, the dissociation constant Kd was determined as 0.0091 nM in [4] and 0.014 nM in experiment [3].
For the molecule `COC(=O)C[C@@H]1N=C(c2ccc(Cl)cc2)c2c(sc(C(=O)NCCOCCOCCOCCNC(=O)C[C@@H]3N=C(c4ccc(Cl)cc4)c4c(sc(C)c4C)-n4c(C)nnc43)c2C)-n2c(C)nnc21` [(6S+2S)-PEG3 (9)], the IC50 in experiment [1] is 0.878 nM; in [2], 2.25 nM. In addition, the Kd in [4] was 0.0075 nM; in [3], 0.029 nM.
On to `COC(=O)C[C@@H]1N=C(c2ccc(Cl)cc2)c2c(sc(C(=O)NCCOCCOCCOCCOCCNC(=O)C[C@@H]3N=C(c4ccc(Cl)cc4)c4c(sc(C)c4C)-n4c(C)nnc43)c2C)-n2c(C)nnc21` [(6S+2S)-PEG4 (10)], for which the concentration for half-maximal inhibition (IC50) in experiment [1] came to 1.09 nM; in experiment [2], 2.95 nM. Moreover, the Kd worked out at 0.0066 nM in [4] and 0.023 nM in experiment [3].
Consider `COC(=O)C[C@@H]1N=C(c2ccc(Cl)cc2)c2c(sc(C(=O)NCCOCCOCCOCCOCCOCCOCCOCCNC(=O)C[C@@H]3N=C(c4ccc(Cl)cc4)c4c(sc(C)c4C)-n4c(C)nnc43)c2C)-n2c(C)nnc21` [(6S+2S)-PEG7 (11)], for which the IC50 is 1.59 nM in experiment [1] and 0.789 nM in [2]. The results for the Kd in experiment [4] and in [3] were 0.0059 nM and 0.026 nM, respectively.
For the molecule `COc1cc2c(cc1-c1c(C)noc1C)ncc1c2n([C@H](C)c2ccccn2)c(=O)n1CC(=O)NCCNC(=O)Cn1c(=O)n([C@@H](C)c2ccccn2)c2c3cc(OC)c(-c4c(C)noc4C)cc3ncc21` [IBETx2-PEG0 (29)], the half-inhibitory concentration (IC50) amounted to 203 nM in experiment [1] and 209 nM in [2].
For `COc1cc2c(cc1-c1c(C)noc1C)ncc1c2n([C@H](C)c2ccccn2)c(=O)n1CC(=O)NCCOCCNC(=O)Cn1c(=O)n([C@@H](C)c2ccccn2)c2c3cc(OC)c(-c4c(C)noc4C)cc3ncc21` [IBETx2-PEG1 (30)], the IC50 in experiment [1] was 203 nM; in [2] it was 108 nM.
On the same counts, the results for `COc1cc2c(cc1-c1c(C)noc1C)ncc1c2n([C@H](C)c2ccccn2)c(=O)n1CC(=O)NCCOCCOCCNC(=O)Cn1c(=O)n([C@@H](C)c2ccccn2)c2c3cc(OC)c(-c4c(C)noc4C)cc3ncc21` [IBETx2-PEG2 (31)] are 123 nM and 117 nM.
In the case of `COc1cc2c(cc1-c1c(C)noc1C)ncc1c2n([C@H](C)c2ccccn2)c(=O)n1CC(=O)NCCOCCOCCOCCNC(=O)Cn1c(=O)n([C@@H](C)c2ccccn2)c2c3cc(OC)c(-c4c(C)noc4C)cc3ncc21` [IBETx2-PEG3 (32)], the results for the IC50 in [1] and in experiment [2] were 64.6 nM and 53.4 nM, respectively.
On the same counts, the results for `COc1cc2c(cc1-c1c(C)noc1C)ncc1c2n([C@H](C)c2ccccn2)c(=O)n1CC(=O)NCCOCCOCCOCCOCCNC(=O)Cn1c(=O)n([C@@H](C)c2ccccn2)c2c3cc(OC)c(-c4c(C)noc4C)cc3ncc21` [IBETx2-PEG4 (33)] are 60.2 nM and 73.7 nM.
The matching figures for `COc1cc2c(cc1-c1c(C)noc1C)ncc1c2n([C@H](C)c2ccccn2)c(=O)n1CC(=O)NCCOCCOCCOCCOCCOCCOCCOCCNC(=O)Cn1c(=O)n([C@@H](C)c2ccccn2)c2c3cc(OC)c(-c4c(C)noc4C)cc3ncc21` [IBETx2-PEG7 (34)]: 13.6 nM and 30.5 nM.
`Cc1sc2c(c1C)C(c1ccc(Cl)cc1)=NC(CC(=O)NCCOCCOCCOCCOCCOCCOCCOCCNC(=O)C[C@@H]1N=C(c3ccc(Cl)cc3)c3c(sc(C)c3C)-n3c(C)nnc31)c1nnc(C)n1-2` (stereo partly drawn) [MTI (35)]: the Ki in experiment [12] amounted to 0.024 nM; in [11], 0.07 nM.

The IC50 is the concentration at which inhibition is half-maximal. A lower IC50 goes with higher potency. By Kd is commonly meant the equilibrium constant for the complex coming apart. Low values mean a tighter complex, high ones a looser complex. What is called Ki is a dissociation constant, usually derived from enzyme kinetics or from competition with a known ligand. A lower Ki goes with a stronger hold on the target.
